Test results reported in ChEMBL document CHEMBL1139693, “Structure-based design of a novel thiazolone scaffold as HCV NS5B polymerase allosteric inhibitors” (Bioorg Med Chem Lett, 2006).

Assay: Inhibition of HCV NS5B polymerase
Parameters: species or system Hepacivirus hominis

IC50: 2000 nM
SMILES: Cc1ccc(S(=O)(=O)NC2=NC(=O)/C(=C/c3ccc(C)o3)S2)cc1
